Like-named read-outs stand apart in the source and are kept apart here.
How the values were obtained:
[1] = Plasma methadone, naltrexone and naltrexone metabolites, multiple oral doses (Example III); assay type: in vivo, dog; details: multiple oral doses of methadone/fluconazole/naltrexone formulation
Description: Twelve healthy Beagle dogs were divided into two groups of 6 each in a parallel study design. […] Group 1 simulated a patient dropped off the night before surgery, while Group 2 simulated a patient dropped off in the morning for same day early afternoon surgery. Rectal temperature was monitored as a marker of central opioid effects throughout the study and von Frey thresholds were obtained to assess the antinociceptive effects.

[2] = Plasma methadone, fluconazole, naltrexone and naltrexone metabolite concentrations (Example IV)
Description: Anesthesia was monitored by licensed veterinary technicians.

[3] = group administered naltrexone 0.25 mg/kg PO with methadone and fluconazole
Description: (§1) Twelve healthy Beagle dogs were divided into two groups of 6 each in a parallel study design. […] Rectal temperature was monitored as a marker of central opioid effects throughout the study.

healthy Beagle dogs = assay: Rectal temperature as marker of central opioid effects, methadone/fluconazole with or without naltrexone (Example II); assay type: in vivo, dog; details: naltrexone 0.25 mg/kg PO added to methadone 1 mg/kg and fluconazole 5 mg/kg PO
Description: as §1

O=C(O)[C@H]1O[C@@H](Oc2ccc3c4c2O[C@H]2C(=O)CC[C@@]5(O)[C@@H](C3)N(CC3CC3)CC[C@]425)[C@H](O)[C@@H](O)[C@@H]1O [naltrexone glucuronide]
Plasma detection of analyte [1]: detected in both groups
Plasma detection of analyte ([2]; oral methadone groups): measured in most of the samples
Plasma detection of analyte [3]: detected

O=C1CC[C@@]2(O)[C@H]3Cc4ccc(O)c5c4[C@@]2(CCN3CC2CC2)[C@H]1O5 [naltrexone]
Effect of addition of naltrexone on central opioid effects of methadone with fluconazole (healthy Beagle dogs): did not affect the central opioid effects
Plasma detection of analyte relative to LOQ of the assay (1 ng/mL) [1]: rarely detected above the LOQ
Plasma detection of analyte ([2]; any group): not detected in any plasma sample from any group
Plasma detection of analyte relative to LOQ of the assay (1 ng/mL) [3]: rarely detected above the LOQ

Oc1ccc2c3c1O[C@H]1[C@H](O)CC[C@@]4(O)[C@@H](C2)N(CC2CC2)CC[C@]314 [β-naltrexol]
Highest measured plasma concentration ([2]; oral methadone groups): 1.7 ng/mL
